Here are results for two sequences from publication PMC10477861, “Efficient Mining of Anticancer Peptides from Gut Metagenome” (Advanced Science, 2023).

Where no end group is shown, it is not given here.

The term CC50 denotes the concentration at which the toxic effect on the cells reaches its halfway point.

The test system of data set [1] is Caco2. As to the kind of experiment: MTT primary screening of anticancer activity, Caco2. It counts as cell-based, Human. The following applies: 25 µM pACP, 24 h, maintenance medium 1% FBS, ratio of viability to vehicle (PBS), at least three technical repetitions. Summed up:
(§1)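 Cultures grown to 60% confluence; complete medium replaced by 1% FBS maintenance medium; peptide added at 25 µM final; incubated 24 h; viability assessed by MTT.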

In data set [2] the test system is SK-BR-3. As to the kind of experiment: MTT primary screening of anticancer activity, SK-BR-3. Type of data set: cell-based. The settings on record: 25 µM pACP, 24 h, maintenance medium 1% FBS, ratio of viability to vehicle (PBS), at least three technical repetitions. Put shortly: as §1
In data set [3] the test system is MDA-MB-453. As to the kind of experiment: MTT primary screening of anticancer activity, MDA-MB-453. Type of data set: cell-based. The settings on record: 25 µM pACP, 24 h, maintenance medium 1% FBS, ratio of viability to vehicle (PBS), at least three technical repetitions. Put shortly:
as §1

In data set [4] the test system is HCT116. As to the kind of experiment: MTT primary screening of anticancer activity, HCT116. Type of data set: cell-based, Human. The following applies: 25 µM pACP, 24 h, maintenance medium 1% FBS, ratio of viability to vehicle (PBS), at least three technical repetitions. Summed up: as §1
Data set [5] deals with EFM192A. As to the kind of experiment: MTT primary screening of anticancer activity, EFM192A. Type of data set: cell-based. The settings on record: 25 µM pACP, 24 h, maintenance medium 1% FBS, ratio of viability to vehicle (PBS), at least three technical repetitions. Summed up:
as §1

Data set [6] concerns LCC. The data set is described as follows: MTT primary screening of anticancer activity, LCC. Type of data set: cell-based. The following applies: 25 µM pACP, 24 h, maintenance medium 1% FBS, ratio of viability to vehicle (PBS), at least three technical repetitions. Put shortly:
as §1

Data set [7] relates to CT26 cells. The data set is described as follows: Propidium iodide (PI) assay of CT26 membrane damage. Type of data set: cell-based, Murine. The following applies: pACP1780 6.23 µM, pACP2283 10.56 µM, 1, 2, 6, 12 h, PI 10 µg ml-1 45 min, ex/em 535/617 nm. As for the experimental part: To explore the anticancer effects of pACP2283 and pACP1780 at the cellular level, we co‐cultured confluent CT26 cells with these pACPs.
Cell viability was assessed using propidium iodide (PI, ZS822‐1) according to the manufacturer's instructions. Briefly, CT26 cells were seeded in a 96‐well plate at a density of 1×10^4 cells per well. After 24 h, pACP1780 and pACP2283 were added to the wells at concentrations of 6.23 and 10.56 µM, respectively. The plate was then incubated for 1, 2, 6, and 12 h. Subsequently, the cells were cultured in medium containing 10 µg ml^−1 PI for 45 min. The fluorescence intensity was measured using a CytationTM 5 instrument (Bio Tek) with excitation/emission wavelengths of 535/617 nm.

Data set [8] concerns CT26. The data set is described as follows: MTT concentration gradient and CC50 against CT26. It counts as cell-based, Murine. The following applies: CT26 cells, calculated with aatbio IC50 calculator from the concentration gradient. The protocol:
(§2) To evaluate the translational relevance of our methodology, we selected these two pACPs for in vivo studies. […] Subcutaneous tumors were established using CT26 cells in athymic nude mice, and the animals were randomized to receive two intratumoral injections of 0.80 mg kg^−1 pACP2283, 0.51 mg kg^−1 pACP1780, or PBS control on day 0 and day 2. The dosage of pACPs was calculated as five times the CC50 of each compound in CT26 cells. Tumor size was monitored daily for six days (Figure 3c).
To evaluate the activity of the 40 potentially effective pACPs, a panel of 16 cancer cell lines was treated, including human CRC cell lines (HT29, Caco‐2, HCT116). Details of the cell lines used, respective media, and culture conditions were presented in Table S1 (Supporting Information). Once the cells reached 60% confluence, it was incubated with each candidate peptide at a concentration of 25 µM pACPs for 24 h. Concurrently, the complete medium was replaced with a maintenance medium containing only 1% FBS. Subsequently, the viability of each cell line using the MTT Cell Proliferation and Cytotoxicity Assay Kit according to the manufacturer's instructions was assessed. […] For the CRC cell line CT26, it was calculated the CC50 value using two peptides (pACP1780 and pACP2283) with relevant data presented in Table S6 (Supporting Information). […]

Data set [9] relates to CT26 subcutaneous tumors. The data set is described as follows: CT26 subcutaneous xenograft tumor model in nude mice. Type of data set: in vivo. More on the design: Mean Diff, tumor volume growth, Control vs. peptide (Dunnett's multiple comparisons test): unit not given here. The following applies: for tumor size compared to control-treated animals: CT26 subcutaneous tumors, athymic nude mice, two intratumoral injections (day 0, day 2), monitored six days, p <0.05; for tumor size compared to control-treated animals / signs of acute toxicity in tumor-bearing mice / survival of treated mice: 0.80 mg kg-1 pACP2283 or 0.51 mg kg-1 pACP1780; for Mean Diff, tumor volume growth, Control vs. peptide (Dunnett's multiple comparisons test): CT26 tumors in nude mice, intratumoral pACP1780 0.51 mg kg-1 or pACP2283 0.80 mg kg-1 on day 0 and day 2, six mice per group; for signs of acute toxicity in tumor-bearing mice / survival of treated mice: athymic nude mice with CT26 tumors, two intratumoral injections. The protocol:
as §2
Six‐week‐old female nude mice were obtained from Beijing HFK Bioscience Co., Ltd. and were acclimated to the laboratory environment for one‐week prior to the commencement of the experiments. All experimental procedures were conducted in a manner that minimized discomfort, distress, and pain to the animals. Mice were group‐housed, with a maximum of five animals per cage, under a light‐dark cycle of 12 h, with a constant temperature of 21–22°C and humidity of 55 ± 5%. They were provided with standard rodent chow and water ad libitum. The Ethics Committee of the Institute of Microbiology, Chinese Academy of Sciences approved all procedures (SQIMCAS2021005).
Murine colorectal carcinoma cell line CT26 was cultured in RPMI‐1640 medium supplemented with 10% fetal bovine serum and 1% penicillin/streptomycin at 37°C and 5% CO2. Tumor formation was induced by injecting was 5×106 ml^−1 CT26 cells into the right forelimb of each mouse. All mice were housed in the same environment with sufficient food and water. Throughout the study, the survival status and tumor progression of the mice on a daily basis were observed. The mice were randomly divided into three groups and received different treatments. CT26 cells were injected on […] for all groups. On Day 0, ACPs (pACP1780: 0.51 mg kg^−1 and pACP2283: 0.80 mg kg^−1) were intratumorally injected, while the Control group received an intratumoral injection of the same volume of PBS. On Day 2, the ACPs were intratumorally injected again, and the Control group received an injection of the same volume of PBS.

On to “RRFAWIGKLQSRKVRNNIRQYRTKIVRQMRRQIFRQMKQKAE [pACP1780]”, for which the “Survival rate of cancer cells in primary screening” value in [1] was 0.74; in data set [2] it was 0.03; in data set [3] it was 0.085; in [4], 0.29; in [5], 0.01; in [6], 0.47. In [7], the “PI fluorescence intensity (damaged cell membranes)” value is “significantly increased fluorescence intensity”. The CC50 in data set [8] was 6.23 µM. Moreover, the “tumor size compared to control-treated animals” value in [9] is “significantly reduced tumor size”. Besides, the “Mean Diff, tumor volume growth, Control vs. peptide (Dunnett's multiple comparisons test)” value in [9] (Day 0) was 0; in data set [9] (Day 1) it was 0.4906; in data set [9] (Day 2) it was 0.7153; in data set [9] (Day 3) it was 0.6812; in [9] (Day 4) it was 1.652; in data set [9] (Day 5) it was 2.41. In data set [9], the “signs of acute toxicity in tumor-bearing mice” value is “no overt signs of acute toxicity were observed”. Also, in data set [9], the “survival of treated mice” value is given as “all mice survived”.

On to “WWRRAERSVRRFFGTPIGPFPEIFGRRKAHKKKIIAKFDSVNG [pACP2283]”, for which the “Survival rate of cancer cells in primary screening” value worked out at 1.00 in data set [1]; 0.0341 in data set [2]; 0.03 in data set [3]; 0.0645 in [4]; 0.15 in [5]; 0.49 in [6]. For the same sequence, in [7], the “PI fluorescence intensity (damaged cell membranes)” value is reported as “significantly increased fluorescence intensity”. In addition, the CC50 in data set [8] is listed as 10.56 µM. For the same sequence, the “tumor size compared to control-treated animals” value in data set [9] was “significantly reduced tumor size”. Also, the “Mean Diff, tumor volume growth, Control vs. peptide (Dunnett's multiple comparisons test)” value worked out at 0 in [9] (Day 0); 0.7285 in [9] (Day 1); 1.385 in data set [9] (Day 2); 1.698 in data set [9] (Day 3); 2.95 in [9] (Day 4); 3.362 in data set [9] (Day 5). In data set [9], the “signs of acute toxicity in tumor-bearing mice” value is listed as “no overt signs of acute toxicity were observed”. For the same sequence, the “survival of treated mice” value in data set [9] is “all mice survived”.
